This test deals with FGF-2 (Homo sapiens, UniProt P09038). Briefly: in vitro cellular test of FGF-2 activation. It counts as cell-based.
FGF-2, sequence (P09038 143-288): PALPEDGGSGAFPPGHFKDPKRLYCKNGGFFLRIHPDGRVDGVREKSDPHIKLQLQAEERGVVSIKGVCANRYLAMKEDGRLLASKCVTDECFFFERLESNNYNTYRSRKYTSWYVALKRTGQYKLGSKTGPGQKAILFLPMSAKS

Regarding “Sodium [methyl(sodium 2-O-sodium sulfonato-α-L-idopyranosyluronate)-(1→4)-(2-deoxy-6-O-sodium sulfonato-2-sodium (sulfonatoamino)-α-D-glucopyranosyl)-(1→4)-[(sodium 2-O-sodium sulfonato-α-L-idopyranosyluronate)-(1→4)-(2-deoxy-6-O-sodium sulfonato-2-sodium sulfonatoamino)-α-D-glucopyranos)-(1→4)]2-2-O-sodium sulfonato-α-L-idopyranoside]uronate [Compound 3]”, the “FGF-2 activation compared with the hexasaccharide analogue (C. Tabeur et al.)” value is recorded as “better FGF-2 activators than the hexasaccharide analogue thereof”.

(Values after patent publication US9527930B2, “FGF receptor-activating N-sulfate oligosaccharides, preparation thereof, and therapeutic use thereof” (priority 2009, dated 2016).)
